# Test results from publication PMC4925161, “EssC: domain structures inform on the elusive translocation channel in the Type VII secretion system” (Biochemical Journal, 2016).
# What was measured:
# EssC-C [1] = target: T1, EssC-C (Geobacillus thermodenitrificans, UniProt A4IKE7); test: fluorescence titration (excitation […] nm, emission […] nm); assay type: binding; design: gene eccC; C-terminal fragment, residues 966-1479 (ATPase modules D2 and D3); N-terminal His6 tag removed with TEV; E. coli host
# EssC-C [2] = target: T1, EssC-C; design: gene eccC; conditions: D2 nucleotide site; ATP modelled in the second molecule (mant density ambiguous, crystal grown with mant-ATP); also present in SeMet structure without added nucleotide; displaces mant-ATP
# [3] = target: the molecule itself; test: native gel or EMSA; blue native PAGE, linear 4-12% gradient native Bis-Tris gels; 8 ug purified EssC-C or 5 ug full-length EssC (DDM-solubilized) loaded; band identity by peptide mass fingerprinting
molecule,measurement,setting,value
"CNc1ccccc1C(=O)O[C@H]1[C@@H](O)[C@H](n2cnc3c(N)ncnc32)O[C@@H]1CO[P@@](=O)(O)O[P@](=O)(O)OP(=O)(O)O (mixture of isomers) [mant-ATP, 2′/3′-(N-methyl-anthraniloyl)-adenosine-5′-triphosphate]",Kd,EssC-C [1],940 ± 110 nM
Nc1ncnc2c1ncn2[C@@H]1O[C@H](COP(=O)(O)OP(=O)(O)OP(=O)(O)O)[C@@H](O)[C@H]1O [ATP],X-ray crystal structure (2.9 Å); displacement of mant-ATP fluorescence,EssC-C [2],ATP was present in the nucleotide-binding site of the D2 module
"full-length membrane-bound EssC from Geobacillus thermodenitrificans NG80-2 (natural protein, UniProt A4IKE7 1-1479, looked up, also called full-length EssC; full-length recombinant protein; source: E. coli LEMO21(DE3), membranes solubilized with DDM, purified (His-Trap, SEC on Superdex 200 with 0.03% DDM)) MSQLWVLYETYCQLFSLTNEEKVIVIGNQLEHHVTVSSFSFRNGYIQIEKKSDGSTLAVLQGGRQIGELKPRCSITIDVDGQQMTIAWSGEEQRKYVYYVGQQSEVLVSNDPQADIETTNARFSLRKHRGQWVVIPDDDAPLFLNGVQLSDAVSLRNGDVLLCPYMQFVFIEEDLLAVTSSEEVVSSLTETMPPLSEMKKKYPMYRRTPRMIYELPSDKVSISFPSQEGDGDPRGLWLMVLPPVMMLLVIGAVALIQPRGVFIMISIAMFATTIVTSTAQYMREKKARQMRKEKRRRIYTNYLEQKREELQALSEKQRNVLYYHFPSFEQMKSFVMQVNSRIWERTAESADFLHVRIGTADVPATYEVSVSMGDLANREIDDLLEQAQHIAKVYQTVKHVPLPIDVSHGAIGMVGKRSIVNGEIEQLVGQIAFFHSYHDVRFVAIFSEDDYKHWEWMKWLPHFQLPNSFAKGLIYNEQTRDQLLSSIYEMLRERALDEEKDKKRFSPHFVFIVADRSLIAEHVILEYLEEKNEDIGISVIFASETKESLTENVHTLVQYINEREGEIVIQHRKAAHIPFQLDEHSTEGNESFARMLRSLNHQKGMSNSIPEKVTFLEMMQTRRANELQIVQNWLSCQTSRSLAVPIGLKGRNDVVELNLHEKAHGPHGLVAGTTGSGKSELLQTYILSLAVHFHPHEVAFLIIDYKGGGMAQPFKNMPHLLGTITNIHGSKNFSARALASINSELKKRQRLFDRYEVNHINDYMELYKQGKAEQPLPHLFLIADEFAELKSEEPDFIRELVSAARIGRSLGVHLILATQKPRGVIDEQIWSNARFRISLKMQDVNDSKEILRNGDAAAITVPGRAYLQVGNNEVYELFQSAWSGAPYVEEGVEAEDEIHIVTDLGLVPVSNVATDRKRSRQKPKTEIEMVVEQIIETQKQLNIEKLPSPWLPPLPPRLARPASVTAEANAFPIGLKDEPELQSQSDYFYQWLEDGNIGIFGSAGYGKSTTMMTLLLSFAGAYNPAQLHYYIFDFGNSALLPLRQLPHTADYFRLDDEKKIEKFIKFMKEEMEQRKQRFMEKEVSTIKLYNALSEEKLPIIIVALDNFDVVKEEMPDFETQLIQYARDGQSLGIFFIMTATRVSGIRPPLMNNLKTKIVHYFIDSSEKFSLIGRTPYDVDPIPGRALIKKDNAALTQIYLPADGEDDIEVLENVKREMERLKEVYQHIPKPKPIPMLPPRLSMSVFTNTYVQHRASGFIPVGLDEQTVRPVAINMRTDPHCLIVGQSRKGKTNVVKVILESLLVQEPESIGLLDGIDRGLAGYANRDDITYIEAKERLAQWLNEADAVLQQREREYIQAVNENRATTLAWPPVVFVVDSLLRLQQETDSIMQGRIANMMKQYSHLGFHVFVAGNANEFVKGFDALTAELKQIRQAILVTKKSEQSLFALPFTRNEQEIEPGFGYFVVGGKDQKIQIPKVE",stoichiometry N,[3],~6
